Bridge positions count the residues as written; N and C are the ends. Square brackets hold non-standard residues; d marks the D form. Peptide text beside a SMILES is read from it. GABA = NCCCC(=O)O
What was measured:
hMC1-R = target: T1, hMC1-R (Homo sapiens, UniProt Q01726); test: Radioligand binding assay, hMC1-R; conditions: competition with [125I]-NDP-α-MSH, CHO-K1 cell membranes
T1 construct: expressed in transfected cells

hMC5-R [1] = target: T2, hMC5-R (Homo sapiens, UniProt P33032); test: Radioligand binding assay, hMC5-R; conditions: competition with [125I]-NDP-α-MSH, CHO-K1 cell membranes
T2 construct: expressed in transfected cells
Method: Cellular membranes used for the in vitro receptor binding assays were obtained from transgenic CHO-K1 cells stably expressing hMC-R receptor subtypes 1, 3, 4 or 5. […] The pellets were resuspended in the same buffer and centrifuged at 50,000 g for 10 minutes at approximately 4° C. The washed pellets containing the cellular membranes were stored at approximately −80° C.
Filters were washed three times with 50 mM Tris-HCl at pH 7.4 at a temperature of approximately 0-4° C. and then assayed for radioactivity using a Packard Topcount® scintillation counter. Binding data were analyzed by computer-assisted non-linear regression analysis (XL fit; IDBS).

hMC4-R = target: T3, hMC4-R (Homo sapiens, UniProt P32245); test: Radioligand binding assay, hMC4-R; conditions: competition with [125I]-NDP-α-MSH, CHO-K1 cell membranes
T3 construct: expressed in transfected cells

hMC3-R = target: T4, hMC3-R (Homo sapiens, UniProt P41968); test: Radioligand binding assay, hMC3-R; conditions: competition with [125I]-NDP-α-MSH, CHO-K1 cell membranes
T4 construct: expressed in transfected cells

hMC5-R [2] = target: T2, hMC5-R; test: cyclic AMP bioassay, hMC5-R; type: cell-based
Method: Intracellular cyclic AMP (cAMP) levels were determined by an electrochemiluminescence (ECL) assay (Meso Scale Discovery®, Gaithersburg, Md.; referred to hereinafter as MSD). […] Transgenic CHO-K1 cells stably expressing hMC receptor subtypes 1, 3, 4 or 5 were dispensed at a density of approximately 7,000 cells/well in 384-well Multi-Array® plates (MSD) containing integrated carbon electrodes and coated with anti-cAMP antibody. Increasing concentrations of the test compounds were added and the cells were incubated for approximately 40 minutes at approximately 37° C. […] At the end of the second incubation period read buffer (Tris-buffered solution containing an ECL co-reactant and Triton X-100 at ph 7.8) was added and the cAMP levels in the cell lysates were immediately determined by ECL detection with a Sector Imager 6000 Reader® (MSD). Data were analyzed using a computer-assisted non-linear regression analysis (XL fit; IDBS) and reported as either an EC50 value or a Kb value.

T2 sequence (P33032 whole entry): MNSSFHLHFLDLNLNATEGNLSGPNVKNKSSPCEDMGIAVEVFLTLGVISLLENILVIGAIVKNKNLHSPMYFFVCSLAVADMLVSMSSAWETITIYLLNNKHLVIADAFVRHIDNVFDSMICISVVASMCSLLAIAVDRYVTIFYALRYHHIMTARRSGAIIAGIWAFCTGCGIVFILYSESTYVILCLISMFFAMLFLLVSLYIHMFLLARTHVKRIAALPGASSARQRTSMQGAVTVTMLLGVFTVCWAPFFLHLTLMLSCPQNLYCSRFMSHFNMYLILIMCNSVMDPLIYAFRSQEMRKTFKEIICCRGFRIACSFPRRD
T1 sequence (Q01726 whole entry): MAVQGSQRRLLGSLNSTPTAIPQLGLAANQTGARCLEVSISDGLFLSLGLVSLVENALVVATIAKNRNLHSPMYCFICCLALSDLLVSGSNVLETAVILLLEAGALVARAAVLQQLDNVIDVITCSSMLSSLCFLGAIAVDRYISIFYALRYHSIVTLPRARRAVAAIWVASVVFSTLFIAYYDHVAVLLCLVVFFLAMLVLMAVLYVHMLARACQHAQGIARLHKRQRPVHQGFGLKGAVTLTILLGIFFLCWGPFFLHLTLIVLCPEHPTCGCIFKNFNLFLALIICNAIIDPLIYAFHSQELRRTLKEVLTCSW
T4 sequence (P41968 whole entry): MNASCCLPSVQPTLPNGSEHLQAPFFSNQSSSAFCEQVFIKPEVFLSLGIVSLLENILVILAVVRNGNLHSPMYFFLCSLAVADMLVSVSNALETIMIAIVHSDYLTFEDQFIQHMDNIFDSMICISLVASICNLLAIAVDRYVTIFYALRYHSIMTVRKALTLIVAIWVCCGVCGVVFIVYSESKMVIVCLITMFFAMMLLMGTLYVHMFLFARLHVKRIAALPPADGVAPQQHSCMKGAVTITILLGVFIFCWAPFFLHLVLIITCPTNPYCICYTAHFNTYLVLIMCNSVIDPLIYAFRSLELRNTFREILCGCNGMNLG
T3 sequence (P32245 whole entry): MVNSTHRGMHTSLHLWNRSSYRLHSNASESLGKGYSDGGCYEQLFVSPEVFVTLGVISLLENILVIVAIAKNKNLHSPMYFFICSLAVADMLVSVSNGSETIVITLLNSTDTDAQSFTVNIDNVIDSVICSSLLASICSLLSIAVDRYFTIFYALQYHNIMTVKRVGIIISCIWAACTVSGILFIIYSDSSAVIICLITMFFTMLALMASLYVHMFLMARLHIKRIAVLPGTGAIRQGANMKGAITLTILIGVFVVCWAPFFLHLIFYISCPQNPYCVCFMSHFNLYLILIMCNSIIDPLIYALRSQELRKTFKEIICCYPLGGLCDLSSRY

Ki (hMC1-R) | Ki (hMC5-R [1]) | Ki (hMC4-R) | Ki (hMC3-R) | SMILES | EC50 (hMC5-R [2])
0.254 nM | 0.714 nM | 2.13 nM | 18.5 nM | CC(=O)N[C@@H](Cc1ccccc1)C(=O)N[C@H]1CSSC[C@@H](C(N)=O)NC(=O)CCCNC(=O)[C@H](Cc2c[nH]c3ccccc23)NC(=O)[C@H](CCCNC(=N)N)NC(=O)[C@@H](Cc2ccccc2)NC(=O)[C@H](Cc2c[nH]cn2)NC1=O [Ac-Phe-c(Cys-His-D-Phe-Arg-Trp-Gaba-Cys)-NH2] (Ac-FCH[dF]RW[GABA]C-NH2; disulfide 2-8) | –
0.995 nM | – | – | – | CCCC[C@H](NC(C)=O)C(=O)N[C@H]1CSSC[C@@H](C(N)=O)NC(=O)CCNC(=O)[C@H](Cc2c[nH]c3ccccc23)NC(=O)[C@H](CCCNC(=N)N)NC(=O)[C@@H](Cc2ccccc2)NC(=O)[C@H](Cc2c[nH]cn2)NC(=O)[C@@H](C)NC1=O [Ac-Nle-c(Cys-D-Ala-His-D-Phe-Arg-Trp-β-Ala-Cys)-NH2] | –
– | – | – | – | CC(=O)N[C@@H](CCCNC(=N)N)C(=O)N[C@H]1CSSC(C)(C)[C@@H](C(N)=O)NC(=O)[C@H](Cc2c[nH]c3ccccc23)NC(=O)[C@H](CCCNC(=N)N)NC(=O)[C@@H](Cc2ccccc2)NC(=O)[C@H](Cc2c[nH]cn2)NC(=O)[C@@H](C)NC1=O [Ac-Arg-c(Cys-D-Ala-His-D-Phe-Arg-Trp-Pen)-NH2] | ≥ 10000 nM

From US20160354429A1, “Use of Melanocortins to Treat Insulin Sensitivity” (Ipsen Pharma S.A.S., priority 2007, published 2016)
